Laboratory results as given in patent publication US20140294729A1, “METHODS FOR IDENTIFICATION AND USE OF AGENTS TARGETING CANCER STEM CELLS” (Whitehead Institute for Biomedical Research, priority 2008, published 2014).
“Also recorded” adds a separate entry of the source.

Key:
Format in all cases: cell-based, human
HMLEshEcad cells [1] = assay: High-throughput chemical screen for selective toxicity, HMLEshEcad vs HMLEshCntrl (ATP luminescence viability); details: for most compounds 10 uM, 3 days, duplicate
Experimental: We screened compounds for cytotoxicity against both HMLEshEcad and control HMLEshCntrl cells. Cells were seeded in 384-well plates, allowed to grow for one day, treated with compound and assayed for cell viability after three days using a luminescence assay; compounds were screened in duplicate for each cell line (FIG. 3A; See Example 3). We screened a collection of ˜16,000 compounds, including many with known bioactivity, natural extracts, modulators of histone deacetylases, and several diverse commercial libraries.
We developed conditions to use an ATP-based luminescence viability assay with 384-well plates in high throughput screening (see Example 3 for Methods). We screened a total of 16,000 compounds as part of our screen. […]
Using the measurements from the plate-normalized DMSO control wells, we constructed the distribution of luminescence intensities for each cell line in the absence of compound (FIG. 3A). […]
Information about the general automated HTS protocol is available online at broad.harvard.edu/chembio/index.html. […] For most compounds the final concentration in each well was calculated to be 10 uM.
The screen was performed in duplicate. […] The luminescent signal from each plate was detected using an automated plate reader (Perkin-Elmer Envision 1; Wellesley, Mass.). […]

HMLE-Twist cells = assay: Dose-response viability of HMLEshCntrl vs HMLE-Twist cells; details: EMT induced by Twist, FIG. 4B
Experimental: (§1) FIG. 4A depicts dose response curves of HMLEshCntrl (A, light gray curve) and HMLEshEcad (A, dark gray curve) cells treated with the 8 compounds identified during the initial screen. 1000 cells of each line were seeded onto 384 well plates and treated with 8 different concentrations of compounds within a 2.5 log range. The cell viability after 3 day treatment was measured by Cell-Titer-Glo. […] FIG. 4B depicts dose response curves of HMLEshCntrl (curve with square data points) and HMLE-Twist (curve with triangular data points) cells treated with the same compounds as in (A). Note that selectivity of Salinomycin, Abamectin, Etoposide and Nigericin (Top, Left-to-Right) is retained even though a different method of EMT induction is used. […] 1 Day after seeding DMSO, Salinomycin (1.25 or 5 μM) or Abamectin (0.25 or 1.25 μM) was added at the indicated concentration. As the GFP vector contains a Blasticidin resistance gene, we used Blasticidin treatment as a positive control for the expansion of GFP-expressing control HMLE cells. After 3 day incubation the mix population of cells were analyzed by flow cytometry and the percentage of GFP-positive cells were determined. […] FIG. 4D depicts dose response curves of transformed HMLERshCntrl (light gray line) and HMLERshEcad (dark gray lines) cells treated with Salinomycin and Abamectin. Dotted line denotes the 50% fraction surviving.
(§2) Individual compounds were purchased from Sigma and dissolved in DMSO with the exception of nigericin which was dissolved in 100% ethanol. Activity of the compounds were quantified by generating dose-response curves for HMLE-shCntrl, HMLE-shEcad and HMLE-Twist under the same cell density and culture conditions described for the initial screen, using the 384-well plate based system.

HMLEshEcad cells [2] = assay: Dose-response viability of HMLEshCntrl vs HMLEshEcad cells (validation of hits, 384-well, Cell-Titer-Glo); details: FIG. 4A; for selective toxicity towards HMLEshEcad cells relative to HMLEshCntrl cells: dose response on retesting
Experimental: as §1
We pursued 8 of the 32 compounds for further study and evaluated their effects across a range of doses.
For each of these compounds, we evaluated the effect on cell viability across a series of doses for sibling cell lines either induced into or not induced into EMT.
Information about the general automated HTS protocol is available online at broad.harvard.edu/chembio/index.html. The assay was initiated by plating 40 μL of medium containing 1000 cells/well into white 384-well opaque-bottom plates (Nunc, Rochester, N.Y.) using an automated plate filler (Bio-Tek μFiller; Winsooki, Vt.) and allowing the cells to adhere for 24 hours. 100 nL of compound stock solutions in dmso was transferred from stock plates into the 384-well assay plates using an automated pin-based compound transfer robot (CyBio CyBi-Well vario; Woburn, Mass.). For most compounds the final concentration in each well was calculated to be 10 uM.
The screen was performed in duplicate. For negative controls, entire dmso-treated control plates were employed, in addition to dmso-only control wells that were incorporated into each compound assay plate. The cells were assayed for luciferase activity with the addition 20 ul of CellTiter-Glo Luminescent Cell Viability Assay solution (Promega). The luminescent signal from each plate was detected using an automated plate reader (Perkin-Elmer Envision 1; Wellesley, Mass.).
as §2

Row | SMILES | specific toxicity towards HMLEshEcad (siEcad) line in the primary screen (HMLEshEcad cells [1]) | selectivity for HMLE-Twist cells vs HMLEshCntrl; dose-response curves compared with HMLEshEcad (HMLE-Twist cells) | IC50 fold lower for HMLEshEcad cells vs HMLEshCntrl cells (HMLEshEcad cells [2]; 3 day treatment, 8 concentrations) [fold] | selective toxicity towards HMLEshEcad cells relative to HMLEshCntrl cells (HMLEshEcad cells [2]) | selective toxicity towards HMLEshEcad cells relative to HMLEshCntrl cells (HMLEshEcad cells [2]; listed as Etoposide)
1 | COc1cc([C@@H]2c3cc4c(cc3[C@@H](O[C@@H]3O[C@@H]5CO[C@@H](C)O[C@H]5[C@H](O)[C@H]3O)[C@H]3COC(=O)[C@H]23)OCO4)cc(OC)c1O [etoposide] | did score positively | is retained | ~10 | moderate to strong selectivity; also recorded: strong specificity | selective toxicity
2 | CN(Cc1cnc2nc(N)nc(N)c2n1)c1ccc(C(=O)N[C@@H](CCC(=O)O)C(=O)O)cc1 [methotrexate] | did score positively | – | – | – | –
